In series [1] the test system is 3T3-L1 cells. In words: Triglyceride production, Adipogenesis Colorimetric Assay. The series is classed as cell-based, mouse.
Protocol: 3T3-L1 cells, which are preadipocytes of mice, are suspended at a concentration of 2×10^4 cells/ml using Dulbecco's Modified EaDCRT media (DMEM, Gibco) containing 10% of Bovine Calf Serum as a growth media (GM), and then inoculated into 24-well plates at 1 ml each, and then adipocytes were cultured for 3 days to become confluent. In order to induce adipocyte differentiation, DMEM media containing 10% FBS was replaced with differentiation media (DM) supplemented with insulin, dexamethasone and 3-isobutyl-1-methylanthin (IBMX) and cultured for 2 days. After 2 days, DMEM media containing 10% FBS containing insulin was added to the existing medium. […] After differentiation was induced under the same conditions as above, triglyceride (TG) produced was measured using an Adipogenesis Colorimetric Assay (Biovision) kit. According to the protocol provided in the kit, after washing the cells once with PBS, 100 μl of Lipid Extract solution was added to scrape the cells, and the cells were placed at 90° C. for 30 minutes. Thereafter, the supernatant, which had turned cloudy, was left at room temperature until it became transparent, and then 50 μl of the supernatant was obtained and transferred to a 96-well plate. After adding 2 μl of lipase and reacting for 10 minutes, 50 μl of the reaction mixture containing the probe and enzyme mix was added and reacted, and the degree of color development was measured at 570 nm with a microplate meter. The concentration of triglyceride produced in the cells was determined using a standard curve for each concentration according to the triglyceride sample included in the kit.
Series [2] deals with L6 myotube cells. In words: Glucose uptake (2-deoxy-D-[14C]-glucose) in muscle cells. The series is classed as cell-based, rat. The procedure:
(§1) To differentiate rat myoblast L6 cells into myotubes, it was suspended at a concentration of 1×10^4 cells/ml in MEM medium (Welgene) supplemented with 10% of Fetal Bovine Serum and 1% of antibiotic antimycotic, and then 500 μl each was inoculated into a 24-well plate and cultured to the full for 2 days. […] The differentiated myotube cells were replaced with serum-free medium before the experiment and left for 6 hours. Myotube cells were pretreated with 100 nM porcine-derived insulin and 20 μM cytochalacin B for 15 minutes, and other samples were pretreated for 30 minutes. […] After the reaction, the cells were washed twice with Krebs-Ringer buffer (20 mM Tris-HCl, 2 mM EDTA, and 0.5 mM EGTA, pH 7.4), and the cells were lysed with 0.5N NaOH and mixed with a scintillation cocktail. The intracellular radiation dose of 2-DG was measured using a liquid scintillation counter (Tri-Carb 2900TR liquid scintillation analyzer, Perkin Elmer).

In series [3] the test system is L6 myotube cells. Description: Isobologram analysis of glucose absorption capacity, chiisanogenin and Ca-HCA. The series is classed as cell-based. As to conditions: Rattus norvegicus; differentiated L6 myotube cells, single compound. The procedure:
as §1

Series [4] has as its system 3T3-L1 cells. As to conditions: for Cell Viability: mouse.
Protocol: DMEM medium (Gibco) supplemented with 10% Bovine Calf Serum and 1% Penicillin-streptomycin was used as a growth media (GM) to culture 3T3-L1 cells, which are mouse preadipocytes. The suspension was suspended at a concentration of 2×10^3 cells/ml, and 100 μl each was inoculated into a 96-well plate, and the cells were cultured to full capacity for 3 days. In order to induce fat differentiation, DMEM medium containing 10% FBS was replaced with a differentiation media (DM) supplemented with insulin, dexamethasone and 3-isobutyl-1-methylxanthine (IBMX), and cultured for 2 days. After 2 days, DMEM medium containing 10% FBS containing insulin was added to the existing medium. […] As described in the CCK-8 (Dojindo) kit for counting cells, 10 μl of CCK-8 solution was mixed with 90 μl of medium and added at 100 μl per well. After reacting for at least 30 minutes to 1 hour, absorbance was measured at 450 nm.
Series [5] has as its system 3T3-L1 cells. In words: Fat accumulation, Oil Red O staining. The series is classed as cell-based, mouse. On the procedure:
3T3-L1 cells, which are preadipocytes of mice, are suspended at a concentration of 2×10^4 cells/ml using Dulbecco's Modified EaDCRT media (DMEM, Gibco) containing 10% of Bovine Calf Serum as a growth media (GM), and then inoculated into 24-well plates at 1 ml each, and then adipocytes were cultured for 3 days to become confluent. […] In order to measure lipid accumulation after inducing the adipocyte differentiation, it was measured using Oil red 0 staining analysis (Sigma-aldrich). To fix the cells, 1% formaldehyde (based on distilled water) was added and reacted at 4° C. for 1 hour, followed by washing with distilled water, and then stained with 500 μl of filtered Oil Red 0 solution at room temperature for 1 hour. Then, after washing with distilled water, 300 μl of 100% isopropyl alcohol was added to extract intracellular oil red 0, and the degree of color development was measured at 492 nm using a microplate measuring instrument.

A short description of series [6]: Example 12 HFD mice: oral glucose tolerance test. As to conditions: oral once daily 10 weeks, 50 mg/kg. The series is classed as in vivo, mouse. The procedure:
After adapting 8-week-old male C57b1/6 J mice to the basic diet (AIN-76A diet) for 2 weeks, and consuming Diet Induced Obesity Diet Formulas (D12451) 60 kcal % HFD diet for 2 weeks from 10 weeks of age, and then the test drug was administered when the average body weight reached 28 g or more. The animal breeding room environment of the mouse was maintained in a constant temperature (25±2° C.), constant humidity (50±5%) and a 12-hour photoperiod (light on 07:00˜19:00) in which the light and shade were controlled in an SPF environment. […] The test drug was dispersed in 0.5% Carboxymethyl cellulose (CMC) and administered in a volume of 0.2 ml, and the drug was administered orally by force into the stomach using a metal Zonde for oral administration.
[…] Blood to be used for blood glucose measurement was collected from the tail vein of a mouse, and blood glucose was measured using a serum analyzer (Accutrend plus GCTL Cobas Roche, Germany).
Results obtained from various experiments are recorded as mean±standard error of mean (SEM), and significance verification is determined using the student's T-test analysis method. The data were analyzed using one-way ANOVA to determine a statistically significant variance between each group for each final point measured, and statistical significance between each group was determined using the nonparametric Mann-Whitney test and Dunnett's multiple comparison test (IBM SPSS statistics version 19.0 statistic software, Inc, IBM, USA).

Series [7] can be described thus: Example 12 HFD mice: serum test. The series is classed as in vivo, mouse. As to conditions: serum of HFD mice, oral once daily for 10 weeks; chiisanogenin 50 mg/kg; Garcinia cambogia extract 200 mg/kg; combination 50 + 150 mg/kg; Met 50 mg/kg. The procedure: The test drug was dispersed in 0.5% Carboxymethyl cellulose (CMC) and administered in a volume of 0.2 ml, and the drug was administered orally by force into the stomach using a metal Zonde for oral administration. Blood was collected by cardiac puncture to conduct a blood biochemical test after the end of the final experiment, and then plasma was separated by centrifugation at 3,000 rpm and 4° C. for 15 minutes within 30 minutes after blood collection, and then stored at −74° C. for blood chemistry and ELISA analysis. The contents of total cholesterol, high-density lipoprotein (HDL), low-density lipoprotein (LDL), triglyceride, FFA, glucose, and LDH, which are indicators of lipid content, were measured using an automated biochemical analyzer (Hitachi-720, Hitachi Medical, Japan). IGF-1 and Creatine were diluted in coating buffer, coated on microwells, and left overnight at 4° C. […] 100 μl of the TMB substrate was dispensed, left in the dark for 30 minutes, treated with 50 μl of the stop solution, and absorbance was measured at a wavelength of 450 nm using an ELISA reader. Results obtained from various experiments are recorded as mean±standard error of mean (SEM), and significance verification is determined using the student's T-test analysis method. […]

Another series concerns PPAR-gamma mRNA. In words: Example 12 HFD mice: adipose tissue PPAR-gamma mRNA analysis. The series is classed as in vivo, mouse. Conditions: adipose tissue of HFD mice, oral once daily for 10 weeks, chiisanogenin 50 mg/kg, Garcinia cambogia extract 200 mg/kg, combination 50 + 150 mg/kg, Met 50 mg/kg. On the procedure:
The test drug was dispersed in 0.5% Carboxymethyl cellulose (CMC) and administered in a volume of 0.2 ml, and the drug was administered orally by force into the stomach using a metal Zonde for oral administration. RNA was extracted from tissues using RNAsolB (Tel-Test) solution, and cDNA and real-time PCR analysis were performed using One-step SYBR Green PCR kit (AB science). From the prepared cDNA, a FAM probe of [NT] ID NO: 16) sequence was used to amplify PPAR-gamma mRNA, and a VIC probe of [NT] ID NO: 15) sequence was used to amplify GAPDH mRNA as an intra control. Real time quantitative PCR was performed using the Applied Biosystems 7500 Real-Time PCR system (Applied Biosystems, USA). Results obtained from various experiments are recorded as mean±standard error of mean (SEM), and significance verification is determined using the student's T-test analysis method. The data were analyzed using one-way ANOVA to determine a statistically significant variance between each group for each final point measured, and statistical significance between each group was determined using the nonparametric Mann-Whitney test and Dunnett's multiple comparison test (IBM SPSS statistics version 19.0 statistic software, Inc, IBM, USA).

Where [8] appears, read: Table 6, mixture ratio 0:10, 25 μg/mL.
Setting [9] is: Mus musculus, 3T3-L1, read-out: Inhibition Rate (TG production).

Where two headings read alike, the source gives them in different places.

As for `O=C(O)CC(O)(C(=O)O)C(O)C(=O)O` (centres unmarked) [Ca-HCA, hydroxy citric acid], the inhibition at 25 µg/mL in the series on 3T3-L1 cells [1] (Mus musculus, 3T3-L1, Table 9, 25 μg/mL, read-out: Inhibition Rate (TG production)) came out at 6.62 ± 0.98%. Further, the inhibition at 50 µg/mL with 3T3-L1 cells [1] (Mus musculus, 3T3-L1, Table 9, 50 μg/mL, read-out: Inhibition Rate (TG production)) was determined as 11.4 ± 0.88%. Besides, the “TG Production Rate (% relative to positive control)” value is reported as 94.51 ± 0.81% with 3T3-L1 cells [1] (Table 9, 25 μg/mL) and 90.54 ± 0.73% in the series with 3T3-L1 cells [1] (Table 9, 50 μg/mL). Further, the “Glucose absorption rate (%, relative to 100 nM insulin treatment as 100%)” value is given as 5% in the series with L6 myotube cells [2] (5 μg/mL) and 50% with L6 myotube cells [2] (30 μg/mL). A half-maximal response in the series with L6 myotube cells [3] (EC50) required 27.6 µM. Besides, the “Cytotoxicity (conclusion from Tables 3 to 5)” value with 3T3-L1 cells [4] is on record as “not cytotoxic”. For the same molecule, the “Cell Viability” value is 113.20 ± 14.37% in the series on 3T3-L1 cells [4] (12.5 μg/mL), 115.37 ± 8.86% with 3T3-L1 cells [4] (25 μg/mL), 86.24 ± 8.74% with 3T3-L1 cells [4] (50 μg/mL) and 88.65 ± 11.58% in the series on 3T3-L1 cells [4] (100 μg/mL).
With `C=C(C)[C@@H]1CC[C@]2(C(=O)O)CC[C@]3(C)[C@H](C[C@H]4OC(=O)C[C@@H](O)[C@]5(C)[C@@H]4[C@@]3(C)CC[C@H]5C(=C)C)[C@@H]12` [Chiisanogenin, chiisanogenin], the inhibition at 10 µg/mL with 3T3-L1 cells [5] (Mus musculus, 3T3-L1, Table 7, 10 μg/mL, read-out: Inhibition Rate (fat accumulation)) is 11.3 ± 1.47%; in the series with 3T3-L1 cells [1] (setting [9]) it was 11.4 ± 5.34%. In addition, the “Fat Accumulation Rate (% relative to positive control)” value in the series with 3T3-L1 cells [5] (setting [8]) stood at 87.21 ± 4.82 %; in the series with 3T3-L1 cells [5] (Table 7, 10 μg/mL) it was 95.13 ± 5.90%. In addition, the “Inhibition Rate (fat accumulation)” value in the series on 3T3-L1 cells [5] (setting [8]) is reported as 22.59 ± 7.34%. Besides, in the series with 3T3-L1 cells [1] (setting [9]), the inhibition at 25 µg/mL is 6.47 ± 0.73%. Also, the inhibition at 50 µg/mL in the series with 3T3-L1 cells [1] (setting [9]) amounted to 22.8 ± 0.25%. Moreover, the “TG Production Rate (% relative to positive control)” value with 3T3-L1 cells [1] (Table 8, 10 μg/mL) is given as 90.84 ± 4.21%; in the series with 3T3-L1 cells [1] (Table 9, 25 μg/mL) it was 94.63 ± 0.61%; in the series with 3T3-L1 cells [1] (Table 9, 50 μg/mL), 81.07 ± 0.20%. For the same molecule, the “Glucose absorption rate (%, relative to 100 nM insulin treatment as 100%)” value is 1% in the series on L6 myotube cells [2] (5 μg/mL) and 25% in the series with L6 myotube cells [2] (15 μg/mL). Further, a half-maximal effect in the series with L6 myotube cells [3] (EC50) was put at 23.3 µM. The “Inhibition Rate (OGTT)” value in series [6] amounted to 38%. For the same molecule, the “OGTT (30 min-0 min, mg/dL)” value in series [6] (glucose 1 g/kg) is 127.4 ± 13.03 mg/dL. Moreover, the “Creatin (mg/dL), mean ± standard error” value in series [7] was determined as 0.635 ± 0.007 mg/dL. Also, the “PPAR-γ mRNA Inhibition Rate (%)” value in the series with PPAR-gamma mRNA was found to be 49%. For the same molecule, the “PPAR-γ mRNA, mean ± standard error” value in the series with PPAR-gamma mRNA (real-time PCR vs GAPDH) is recorded as 2.134 ± 0.39. Besides, in the series on 3T3-L1 cells [4], the “Cytotoxicity (conclusion from Tables 3 to 5)” value is on record as “not cytotoxic”. For the same molecule, the “Cell Viability” value in the series on 3T3-L1 cells [4] (10 μg/mL) is recorded as 127.27 ± 18.60%; with 3T3-L1 cells [4] (12.5 μg/mL), 106.41 ± 3.40%; in the series with 3T3-L1 cells [4] (50 μg/mL), 117.77 ± 9.59%; in the series on 3T3-L1 cells [4] (100 μg/mL), 104.31 ± 9.72%.
